Values after ≈ are worked out from the molar mass of the structure shown. Active and inactive are the calls of the source. No cut-off for these calls is given here.
test system: Hepatitis C virus; experiment: Ratio of ribavirin EC50 to compound EC50 for Hepatitis C virus subtype 1a; assay type: functional, Hepacivirus hominis; conditions: not given

Q: With `COC(=O)[C@@H]1CC[C@H](n2ccc(N)nc2=O)O1` as the compound, how does the “Ratio EC50” value read?
A: >2

test system: Hepatitis C virus; experiment: Antiviral activity against Hepatitis C virus subtype 1a infected in human HuH7 cells at 5 ug/mL after 2 days by q-PCR analysis; assay type: functional, Hepacivirus hominis; conditions: Huh-7, 48 h

Q: Which inhibition at 5 µg/mL does the source give for `COC(=O)[C@@H]1CC[C@H](n2ccc(N)nc2=O)O1` here?
A: 38%

test system: Hepatitis B virus; experiment: Antiviral activity against Hepatitis B virus infected in human HepG2(2.2.15) cells assessed as inhibition of viral replication at 10 ug/mL; assay type: functional; conditions: not given

Q: With `COC(=O)[C@@H]1CC[C@H](n2ccc(N)nc2=O)O1` as the compound, how does the inhibition at 10 µg/mL read?
A: 63%

Q: For `[N-]=[N+]=N[C@H]1C[C@H](n2ccc(=O)[nH]c2=O)O[C@@H]1C(=O)O`, which inhibition at 10 µg/mL is on record?
A: 50%

Q: For `CC(=O)O[C@H]1C[C@H](n2cc(F)c(=O)[nH]c2=O)O[C@@H]1C(=O)O`, which inhibition at 10 µg/mL is on record?
A: 0%

Q: With `Cc1cn([C@H]2C[C@H](N=[N+]=[N-])[C@@H](C(=O)O)O2)c(=O)[nH]c1=O` as the compound, how does the inhibition at 10 µg/mL read?
A: 50%

Q: With `O=C(O)[C@@H]1CC[C@H](n2ccc(=O)[nH]c2=O)O1` as the compound, how does the inhibition at 10 µg/mL read?
A: 0%

Q: With `Cc1cn([C@H]2C=C[C@@H](C(=O)O)O2)c(=O)[nH]c1=O` as the compound, how does the inhibition at 10 µg/mL read?
A: 58%

Q: Which inhibition at 10 µg/mL does the source give for `N=c1ccn([C@H]2CC[C@@H](C(=O)O)O2)c(=O)[nH]1` here?
A: 60%

Q: With `Cc1cn([C@H]2CC=C(C(=O)O)O2)c(=O)[nH]c1=O` as the compound, how does the inhibition at 10 µg/mL read?
A: 61%

test system: Duck hepatitis B virus; experiment: Antiviral activity against Duck hepatitis B virus infected in pekin duck primary hepatocytes assessed as inhibition of viral replication at 10 ug/mL; assay type: functional; conditions: Hepatocyte, in Anas platyrhynchos

Q: Which inhibition at 10 µg/mL does the source give for `COC(=O)[C@@H]1CC[C@H](n2ccc(N)nc2=O)O1` here?
A: 90%

Q: With `[N-]=[N+]=N[C@H]1C[C@H](n2ccc(=O)[nH]c2=O)O[C@@H]1C(=O)O` as the compound, how does the inhibition at 10 µg/mL read?
A: 62%

Q: With `CC(=O)O[C@H]1C[C@H](n2cc(F)c(=O)[nH]c2=O)O[C@@H]1C(=O)O` as the compound, how does the inhibition at 10 µg/mL read?
A: 0%

Q: Which inhibition at 10 µg/mL does the source give for `Cc1cn([C@H]2C[C@H](N=[N+]=[N-])[C@@H](C(=O)O)O2)c(=O)[nH]c1=O` here?
A: 55%

Q: With `O=C(O)[C@@H]1CC[C@H](n2ccc(=O)[nH]c2=O)O1` as the compound, how does the inhibition at 10 µg/mL read?
A: 0%

Q: For `Cc1cn([C@H]2C=C[C@@H](C(=O)O)O2)c(=O)[nH]c1=O`, which inhibition at 10 µg/mL is on record?
A: 63%

Q: For `N=c1ccn([C@H]2CC[C@@H](C(=O)O)O2)c(=O)[nH]1`, which inhibition at 10 µg/mL is on record?
A: 80%

Q: Which inhibition at 10 µg/mL does the source give for `Cc1cn([C@H]2CC=C(C(=O)O)O2)c(=O)[nH]c1=O` here?
A: 65%

test system: Hepatitis C virus; experiment: Antiviral activity against Hepatitis C virus subtype 1a infected in human HuH7 cells at 20 ug/mL after 2 days by q-PCR analysis; assay type: functional, Hepacivirus hominis; conditions: Huh-7, 48 h

Q: Which inhibition at 20 µg/mL does the source give for `[N-]=[N+]=N[C@H]1C[C@H](n2ccc(=O)[nH]c2=O)O[C@@H]1C(=O)O` here?
A: 40%

Q: For `CC(=O)O[C@H]1C[C@H](n2cc(F)c(=O)[nH]c2=O)O[C@@H]1C(=O)O`, which inhibition at 20 µg/mL is on record?
A: 0%

Q: Which inhibition at 20 µg/mL does the source give for `Cc1cn([C@H]2C[C@H](N=[N+]=[N-])[C@@H](C(=O)O)O2)c(=O)[nH]c1=O` here?
A: 30%

Q: For `O=C(O)[C@@H]1CC[C@H](n2ccc(=O)[nH]c2=O)O1`, which inhibition at 20 µg/mL is on record?
A: 0%

Q: With `Cc1cn([C@H]2C=C[C@@H](C(=O)O)O2)c(=O)[nH]c1=O` as the compound, how does the inhibition at 20 µg/mL read?
A: 0%

Q: For `N=c1ccn([C@H]2CC[C@@H](C(=O)O)O2)c(=O)[nH]1`, which inhibition at 20 µg/mL is on record?
A: 0%

Q: For `Cc1cn([C@H]2CC=C(C(=O)O)O2)c(=O)[nH]c1=O`, which inhibition at 20 µg/mL is on record?
A: 50%

test system: Duck hepatitis B virus; experiment: Antiviral activity against Duck hepatitis B virus infected in pekin duck primary hepatocytes assessed as inhibition of viral replication at 0.5 to 1 ug/mL; assay type: functional, Hepatocyte; conditions: not given

Q: With `Nc1ccn([C@@H]2CS[C@H](CO)O2)c(=O)n1` [LAMIVUDINE] as the compound, how does the “inhibition (INH)” value read?
A: 96%

test system: Hepatitis C virus; experiment: Potentiation of ribavirin antiviral activity against Hepatitis C virus subtype 1a infected in human HuH7 cells at 5 ug/mL after 2 days by q-PCR analysis; assay type: functional, organism-based; conditions: Hepacivirus hominis, Huh-7

Q: With `COC(=O)[C@@H]1CC[C@H](n2ccc(N)nc2=O)O1` as the compound, how does the Activity read?
A: Active

test system: Hepatitis C virus; experiment: Antiviral activity against Hepatitis C virus subtype 1a infected in human HuH7 cells after 2 days by q-PCR analysis; assay type: functional, organism-based, Hepacivirus hominis; conditions: Huh-7, 48 h

Q: For `COC(=O)[C@@H]1CC[C@H](n2ccc(N)nc2=O)O1`, which EC50 is on record?
A: 10 µg/mL (≈ 41.8 µM)

Q: For `[N-]=[N+]=N[C@H]1C[C@H](n2ccc(=O)[nH]c2=O)O[C@@H]1C(=O)O`, which EC50 is on record?
A: > 20 µg/mL

Q: With `Cc1cn([C@H]2CC=C(C(=O)O)O2)c(=O)[nH]c1=O` as the compound, how does the EC50 read?
A: 20 µg/mL (≈ 84 µM)

Q: For `NC(=O)c1ncn([C@@H]2O[C@H](CO)[C@@H](O)[C@H]2O)n1` [RIBAVIRIN], which EC50 is on record?
A: 20 µg/mL (≈ 81.9 µM)

test system: Hepatitis B virus; experiment: Antiviral activity against Hepatitis B virus infected in human HepG2(2.2.15) cells assessed as inhibition of viral replication at 0.5 to 1 ug/mL; assay type: functional; conditions: not given

Q: For `Nc1ccn([C@@H]2CS[C@H](CO)O2)c(=O)n1` [LAMIVUDINE], which “inhibition (INH)” value is on record?
A: 88%

test system: not listed separately; experiment: Cytotoxicity against human HuH7 cells after 2 days by XTT assay; assay type: cell-based, Huh-7; conditions: not given

Q: Which CC50 at 48 h does the source give for `COC(=O)[C@@H]1CC[C@H](n2ccc(N)nc2=O)O1` here?
A: > 250 µg/mL

Q: Which CC50 at 48 h does the source give for `[N-]=[N+]=N[C@H]1C[C@H](n2ccc(=O)[nH]c2=O)O[C@@H]1C(=O)O` here?
A: > 250 µg/mL

Q: With `CC(=O)O[C@H]1C[C@H](n2cc(F)c(=O)[nH]c2=O)O[C@@H]1C(=O)O` as the compound, how does the CC50 at 48 h read?
A: > 250 µg/mL

Q: For `Cc1cn([C@H]2C[C@H](N=[N+]=[N-])[C@@H](C(=O)O)O2)c(=O)[nH]c1=O`, which CC50 at 48 h is on record?
A: > 250 µg/mL

Q: Which CC50 at 48 h does the source give for `O=C(O)[C@@H]1CC[C@H](n2ccc(=O)[nH]c2=O)O1` here?
A: > 250 µg/mL

Q: With `Cc1cn([C@H]2C=C[C@@H](C(=O)O)O2)c(=O)[nH]c1=O` as the compound, how does the CC50 at 48 h read?
A: > 250 µg/mL

Q: Which CC50 at 48 h does the source give for `N=c1ccn([C@H]2CC[C@@H](C(=O)O)O2)c(=O)[nH]1` here?
A: > 250 µg/mL

Q: For `Cc1cn([C@H]2CC=C(C(=O)O)O2)c(=O)[nH]c1=O`, which CC50 at 48 h is on record?
A: > 250 µg/mL

test system: Hepatitis B virus; experiment: Antiviral activity against Hepatitis B virus infected in human HepG2(2.2.15) cells assessed as inhibition of viral replication; assay type: functional, organism-based; conditions: not given

Q: Which EC50 does the source give for `COC(=O)[C@@H]1CC[C@H](n2ccc(N)nc2=O)O1` here?
A: 5 µg/mL (≈ 20.9 µM)

Q: For `[N-]=[N+]=N[C@H]1C[C@H](n2ccc(=O)[nH]c2=O)O[C@@H]1C(=O)O`, which EC50 is on record?
A: 10 µg/mL (≈ 37.4 µM)

Q: With `Cc1cn([C@H]2C[C@H](N=[N+]=[N-])[C@@H](C(=O)O)O2)c(=O)[nH]c1=O` as the compound, how does the EC50 read?
A: 10 µg/mL (≈ 35.6 µM)

Q: With `Cc1cn([C@H]2C=C[C@@H](C(=O)O)O2)c(=O)[nH]c1=O` as the compound, how does the EC50 read?
A: 5 µg/mL (≈ 21 µM)

Q: For `N=c1ccn([C@H]2CC[C@@H](C(=O)O)O2)c(=O)[nH]1`, which EC50 is on record?
A: 5 µg/mL (≈ 22.2 µM)

Q: With `Cc1cn([C@H]2CC=C(C(=O)O)O2)c(=O)[nH]c1=O` as the compound, how does the EC50 read?
A: 5 µg/mL (≈ 21 µM)

test system: Hepatitis C virus; experiment: Antiviral activity against Hepatitis C virus subtype 1a infected in human HuH7 cells at 20 to 50 ug/mL after 2 days by q-PCR analysis; assay type: functional, Hepacivirus hominis, Huh-7; conditions: not given

Q: For `NC(=O)c1ncn([C@@H]2O[C@H](CO)[C@@H](O)[C@H]2O)n1` [RIBAVIRIN], which “inhibition (INH)” value is on record?
A: 50%

test system: Hepatitis C virus; experiment: Antiviral activity against Hepatitis C virus subtype 1a infected in human HuH7 cells at 10 ug/mL after 2 days by q-PCR analysis; assay type: functional, Hepacivirus hominis; conditions: Huh-7, 48 h

Q: Which inhibition at 10 µg/mL does the source give for `COC(=O)[C@@H]1CC[C@H](n2ccc(N)nc2=O)O1` here?
A: 50%

Q: Which inhibition at 10 µg/mL does the source give for `NC(=O)c1ncn([C@@H]2O[C@H](CO)[C@@H](O)[C@H]2O)n1` [RIBAVIRIN] here?
A: 35%

test system: Duck hepatitis B virus; experiment: Antiviral activity against Duck hepatitis B virus infected in pekin duck primary hepatocytes assessed as inhibition of viral replication; assay type: functional, organism-based; conditions: Hepatocyte

Q: Which EC50 does the source give for `COC(=O)[C@@H]1CC[C@H](n2ccc(N)nc2=O)O1` here?
A: 0.5 µg/mL (≈ 2.09 µM)

Q: Which EC50 does the source give for `[N-]=[N+]=N[C@H]1C[C@H](n2ccc(=O)[nH]c2=O)O[C@@H]1C(=O)O` here?
A: 5 µg/mL (≈ 18.7 µM)

Q: With `Cc1cn([C@H]2C[C@H](N=[N+]=[N-])[C@@H](C(=O)O)O2)c(=O)[nH]c1=O` as the compound, how does the EC50 read?
A: 5 µg/mL (≈ 17.8 µM)

Q: With `Cc1cn([C@H]2C=C[C@@H](C(=O)O)O2)c(=O)[nH]c1=O` as the compound, how does the EC50 read?
A: 2.5 µg/mL (≈ 10.5 µM)

Q: Which EC50 does the source give for `N=c1ccn([C@H]2CC[C@@H](C(=O)O)O2)c(=O)[nH]1` here?
A: 0.5 µg/mL (≈ 2.22 µM)

Q: Which EC50 does the source give for `Cc1cn([C@H]2CC=C(C(=O)O)O2)c(=O)[nH]c1=O` here?
A: 2.5 µg/mL (≈ 10.5 µM)
